Assay results: ChEMBL document CHEMBL4813981, “Synthesis and in vitro antibacterial activity of new aminothiazole-oximepiperidone cephalosporins” (2021)
Converted amounts (≈) assume the structure as drawn.

Tests used:
Klebsiella pneumoniae [1] = test: Antibacterial activity against Multidrug resistant Klebsiella pneumoniae KR 15-1 assessed as reduction in bacterial growth; type: functional
Klebsiella pneumoniae [2] = test: Antibacterial activity against Multidrug resistant Klebsiella pneumoniae KR 15-2 assessed as reduction in bacterial growth; type: functional
Acinetobacter baumannii [3] = test: Antibacterial activity against Multidrug resistant Acinetobacter baumannii AR 15-4 assessed as reduction in bacterial growth; type: functional
Escherichia coli [4] = test: Antibacterial activity against Escherichia coli ATCC 35218 assessed as reduction in bacterial growth in the presence of Avibactam; type: functional
Escherichia coli [5] = test: Antibacterial activity against Escherichia coli 15-4 overexpressing extended spectrum beta-lactamases assessed as reduction in bacterial growth in the presence of Avibactam; type: functional
Acinetobacter baumannii [6] = test: Antibacterial activity against Multidrug resistant Acinetobacter baumannii AR 15-3 assessed as reduction in bacterial growth in the presence of Avibactam; type: functional
Acinetobacter baumannii [7] = test: Antibacterial activity against Multidrug resistant Acinetobacter baumannii AR 15-4 assessed as reduction in bacterial growth in the presence of Avibactam; type: functional
Acinetobacter baumannii [8] = test: Antibacterial activity against Carbapenem- resistant Acinetobacter baumannii 17-2 assessed as reduction in bacterial growth in the presence of Avibactam; type: functional
Acinetobacter baumannii [9] = test: Antibacterial activity against Carbapenem- resistant Acinetobacter baumannii 17-11 assessed as reduction in bacterial growth in the presence of Avibactam; type: functional
Klebsiella pneumoniae [10] = test: Antibacterial activity against Carbapenem- resistant Klebsiella pneumoniae KR 15-9 assessed as reduction in bacterial growth in the presence of Avibactam; type: functional
Klebsiella pneumoniae [11] = test: Antibacterial activity against Carbapenem- resistant Klebsiella pneumoniae KR 15-10 assessed as reduction in bacterial growth in the presence of Avibactam; type: functional
Pseudomonas aeruginosa [12] = test: Antibacterial activity against Carbapenem- resistant Pseudomonas aeruginosa 17-1 assessed as reduction in bacterial growth in the presence of Avibactam; type: functional
Pseudomonas aeruginosa [13] = test: Antibacterial activity against Carbapenem- resistant Pseudomonas aeruginosa 17-5 assessed as reduction in bacterial growth in the presence of Avibactam; type: functional
Klebsiella pneumoniae [14] = test: Antibacterial activity against ESBLs positive Carbapenem-sensitive Klebsiella pneumoniae 17-1 assessed as reduction in bacterial growth in the presence of Avibactam; type: functional
Klebsiella pneumoniae [15] = test: Antibacterial activity against ESBLs positive Carbapenem-sensitive Klebsiella pneumoniae 17-8 assessed as reduction in bacterial growth in the presence of Avibactam; type: functional
Klebsiella pneumoniae [16] = test: Antibacterial activity against ESBLs negative Carbapenem-sensitive Klebsiella pneumoniae 17-20 assessed as reduction in bacterial growth in the presence of Avibactam; type: functional
Escherichia coli [17] = test: Antibacterial activity against ESBLs positive Carbapenem-sensitive Escherichia coli 17-6 assessed as reduction in bacterial growth in the presence of Avibactam; type: functional
Escherichia coli [18] = test: Antibacterial activity against ESBLs positive Carbapenem-sensitive Escherichia coli 17-10 assessed as reduction in bacterial growth in the presence of Avibactam; type: functional
Escherichia coli [19] = test: Antibacterial activity against ESBLs positive Carbapenem-sensitive Escherichia coli 17-18 assessed as reduction in bacterial growth in the presence of Avibactam; type: functional
Escherichia coli [20] = test: Antibacterial activity against ESBLs positive Carbapenem-sensitive Escherichia coli 17-22 assessed as reduction in bacterial growth in the presence of Avibactam; type: functional
Escherichia coli [21] = test: Antibacterial activity against ESBLs negative Carbapenem-sensitive Escherichia coli 17-7 assessed as reduction in bacterial growth in the presence of Avibactam; type: functional
Enterobacter cloacae = test: Antibacterial activity against Enterobacter cloacae 17-7 assessed as reduction in bacterial growth in the presence of Avibactam; type: functional
Klebsiella aerogenes [22] = test: Antibacterial activity against Enterobacter aerogenes 17-1 assessed as reduction in bacterial growth in the presence of Avibactam; type: functional
Klebsiella aerogenes [23] = test: Antibacterial activity against Enterobacter aerogenes 17-2 assessed as reduction in bacterial growth in the presence of Avibactam; type: functional
Klebsiella aerogenes [24] = test: Antibacterial activity against Enterobacter aerogenes 17-4 assessed as reduction in bacterial growth in the presence of Avibactam; type: functional
Klebsiella aerogenes [25] = test: Antibacterial activity against Enterobacter aerogenes 15-3 assessed as reduction in bacterial growth in the presence of Avibactam; type: functional
Pseudomonas aeruginosa [26] = test: Antibacterial activity against Carbapenem- sensitive Pseudomonas aeruginosa 17-21 assessed as reduction in bacterial growth in the presence of Avibactam; type: functional
Pseudomonas aeruginosa [27] = test: Antibacterial activity against Carbapenem- sensitive Pseudomonas aeruginosa 17-22 assessed as reduction in bacterial growth in the presence of Avibactam; type: functional
Pseudomonas aeruginosa [28] = test: Antibacterial activity against Carbapenem- sensitive Pseudomonas aeruginosa 17-26 assessed as reduction in bacterial growth in the presence of Avibactam; type: functional
Escherichia coli [29] = test: Bactericidal activity against ESBLs negative Carbapenem--sensitive Escherichia coli 17-9 assessed as reduction in bacterial growth; type: functional
Escherichia coli [30] = test: Bactericidal activity against ESBLs positive Carbapenem-sensitive Escherichia coli 17-18 assessed as reduction in bacterial growth; type: functional
Pseudomonas aeruginosa [31] = test: Bactericidal activity against carbapenem-sensitive Pseudomonas aeruginosa 17-7 assessed as reduction in bacterial growth; type: functional
Pseudomonas aeruginosa [32] = test: Bactericidal activity against carbapenem-sensitive Pseudomonas aeruginosa 17-10 assessed as reduction in bacterial growth; type: functional
Acinetobacter baumannii [33] = test: Bactericidal activity against Carbapenem- resistant Acinetobacter baumannii 17-3 assessed as reduction in bacterial growth in the presence of avibactam; type: functional
Acinetobacter baumannii [34] = test: Bactericidal activity against Carbapenem- resistant Acinetobacter baumannii 17-5 assessed as reduction in bacterial growth in the presence of avibactam; type: functional
Acinetobacter baumannii [35] = test: Bactericidal activity against Carbapenem- resistant Acinetobacter baumannii 17-11 assessed as reduction in bacterial growth in the presence of avibactam; type: functional
Klebsiella pneumoniae [36] = test: Bactericidal activity against Carbapenem- resistant Klebsiella pneumoniae KR 15-5 assessed as reduction in bacterial growth in the presence of avibactam; type: functional
Pseudomonas aeruginosa [37] = test: Bactericidal activity against Carbapenem- resistant Pseudomonas aeruginosa 17-8 assessed as reduction in bacterial growth in the presence of avibactam; type: functional
Escherichia coli [38] = test: Bactericidal activity against ESBLs negative carbapenem-sensitive Escherichia coli 17-9 assessed as reduction in bacterial growth in the presence of avibactam; type: functional
Escherichia coli [39] = test: Bactericidal activity against ESBLs negative carbapenem-sensitive Escherichia coli 17-20 assessed as reduction in bacterial growth in the presence of avibactam; type: functional
Pseudomonas aeruginosa [40] = test: Bactericidal activity against carbapenem-sensitive Pseudomonas aeruginosa 17-7 assessed as reduction in bacterial growth in the presence of avibactam; type: functional
Pseudomonas aeruginosa [41] = test: Bactericidal activity against carbapenem-sensitive Pseudomonas aeruginosa 17-9 assessed as reduction in bacterial growth in the presence of avibactam; type: functional
Klebsiella pneumoniae [42] = test: Bactericidal activity against Klebsiella pneumoniae ATCC BAA-1705 assessed as reduction in bacterial growth in the presence of avibactam; type: functional
Pseudomonas aeruginosa [43] = test: Antibacterial activity against Carbapenem- sensitive Pseudomonas aeruginosa 17-30 assessed as reduction in bacterial growth; type: functional
Klebsiella pneumoniae [44] = test: Antibacterial activity against Carbapenem- resistant Klebsiella pneumoniae KR 15-5 assessed as reduction in bacterial growth
Klebsiella pneumoniae [45] = test: Antibacterial activity against Carbapenem- resistant Klebsiella pneumoniae KR 15-8 assessed as reduction in bacterial growth
Klebsiella pneumoniae [46] = test: Antibacterial activity against ESBLs negative Carbapenem-sensitive Klebsiella pneumoniae 17-16 assessed as reduction in bacterial growth

**Q.** Which results are given for `Nc1nc(/C(=N/OCc2cc(=O)c(O)cn2O)C(=O)N[C@@H]2C(=O)N3C(C(=O)O)=CCS[C@H]23)cs1`?
**A.** MIC (Klebsiella pneumoniae [1]): > 64 mg/L; MIC (Klebsiella pneumoniae [2]): > 64 mg/L; MIC (Acinetobacter baumannii [3]): > 64 mg/L; MIC (Escherichia coli [4]): 0.25 mg/L; MIC (Escherichia coli [5]): 0.5 mg/L; MIC (Acinetobacter baumannii [6]): 8 mg/L; MIC (Acinetobacter baumannii [7]): 8 mg/L; MIC (Acinetobacter baumannii [8]): 16 mg/L; MIC (Acinetobacter baumannii [9]): 8 mg/L; MIC (Klebsiella pneumoniae [10]): 2 mg/L; MIC (Klebsiella pneumoniae [11]): 1 mg/L; MIC (Pseudomonas aeruginosa [12]): 16 mg/L; MIC (Pseudomonas aeruginosa [13]): 32 mg/L; MIC (Klebsiella pneumoniae [14]): 0.25 mg/L; MIC (Klebsiella pneumoniae [15]): 0.5 mg/L; MIC (Klebsiella pneumoniae [16]): 0.06 mg/L; MIC (Escherichia coli [17]): 0.5 mg/L; MIC (Escherichia coli [18]): 0.06 mg/L; MIC (Escherichia coli [19]): 0.5 mg/L; MIC (Escherichia coli [20]): 0.5 mg/L; MIC (Escherichia coli [21]): 0.5 mg/L; MIC (Enterobacter cloacae): 2 mg/L; MIC (Klebsiella aerogenes [22]): 2 mg/L; MIC (Klebsiella aerogenes [23]): 1 mg/L; MIC (Klebsiella aerogenes [24]): 1 mg/L; MIC (Klebsiella aerogenes [25]): 16 mg/L; MIC (Pseudomonas aeruginosa [26]): 2 mg/L; MIC (Pseudomonas aeruginosa [27]): 1 mg/L; MIC (Pseudomonas aeruginosa [28]): 1 mg/L; MBC (Escherichia coli [29]): 2 mg/L (≈ 3.93 µM); MBC (Escherichia coli [30]): 32 mg/L (≈ 62.9 µM); MBC (Pseudomonas aeruginosa [31]): 1 mg/L (≈ 1.97 µM); MBC (Pseudomonas aeruginosa [32]): 8 mg/L (≈ 15.7 µM); MBC (Acinetobacter baumannii [33]): 16 mg/L; MBC (Acinetobacter baumannii [34]): 16 mg/L; MBC (Acinetobacter baumannii [35]): > 64 mg/L; MBC (Klebsiella pneumoniae [36]): 4 mg/L; MBC (Pseudomonas aeruginosa [37]): 32 mg/L; MBC (Escherichia coli [38]): 2 mg/L; MBC (Escherichia coli [39]): > 0.5 mg/L; MBC (Pseudomonas aeruginosa [40]): 0.25 mg/L; MBC (Pseudomonas aeruginosa [41]): 4 mg/L; MBC (Klebsiella pneumoniae [42]): 2 mg/L; MIC (Pseudomonas aeruginosa [43]): 1 mg/L (≈ 1.97 µM); MIC (Klebsiella pneumoniae [44]): > 64 mg/L; MIC (Klebsiella pneumoniae [45]): > 64 mg/L; MIC (Klebsiella pneumoniae [46]): 0.5 mg/L (≈ 0.983 µM)

**Q.** Which results are given for `CC(C)(O/N=C(\C(=O)N[C@@H]1C(=O)N2C(C(=O)[O-])=C(C[n+]3ccccc3)CS[C@H]12)c1csc(N)n1)C(=O)O` [CEFTAZIDIME]?
**A.** MIC (Klebsiella pneumoniae [1]): > 64 mg/L; MIC (Klebsiella pneumoniae [2]): > 64 mg/L; MIC (Acinetobacter baumannii [3]): > 64 mg/L; MIC (Escherichia coli [4]): 0.06 mg/L; MIC (Escherichia coli [5]): 0.5 mg/L; MIC (Acinetobacter baumannii [6]): 16 mg/L; MIC (Acinetobacter baumannii [7]): 8 mg/L; MIC (Acinetobacter baumannii [8]): 8 mg/L; MIC (Acinetobacter baumannii [9]): 8 mg/L; MIC (Klebsiella pneumoniae [10]): 2 mg/L; MIC (Klebsiella pneumoniae [11]): 2 mg/L; MIC (Pseudomonas aeruginosa [12]): 8 mg/L; MIC (Pseudomonas aeruginosa [13]): 32 mg/L; MIC (Klebsiella pneumoniae [14]): 1 mg/L; MIC (Klebsiella pneumoniae [15]): 2 mg/L; MIC (Klebsiella pneumoniae [16]): 0.125 mg/L; MIC (Escherichia coli [17]): 0.5 mg/L; MIC (Escherichia coli [18]): 0.5 mg/L; MIC (Escherichia coli [19]): 0.5 mg/L; MIC (Escherichia coli [20]): 1 mg/L; MIC (Escherichia coli [21]): 0.125 mg/L; MIC (Enterobacter cloacae): 2 mg/L; MIC (Klebsiella aerogenes [22]): 1 mg/L; MIC (Klebsiella aerogenes [23]): 0.5 mg/L; MIC (Klebsiella aerogenes [24]): 0.5 mg/L; MIC (Klebsiella aerogenes [25]): 4 mg/L; MIC (Pseudomonas aeruginosa [26]): 1 mg/L; MIC (Pseudomonas aeruginosa [27]): 0.5 mg/L; MIC (Pseudomonas aeruginosa [28]): 1 mg/L; MBC (Escherichia coli [29]): 4 mg/L (≈ 7.32 µM); MBC (Escherichia coli [30]): 2 mg/L (≈ 3.66 µM); MBC (Pseudomonas aeruginosa [31]): 1 mg/L (≈ 1.83 µM); MBC (Pseudomonas aeruginosa [32]): 8 mg/L (≈ 14.6 µM); MBC (Acinetobacter baumannii [33]): 8 mg/L; MBC (Acinetobacter baumannii [34]): 16 mg/L; MBC (Acinetobacter baumannii [35]): 32 mg/L; MBC (Klebsiella pneumoniae [36]): 4 mg/L; MBC (Pseudomonas aeruginosa [37]): 16 mg/L; MBC (Escherichia coli [38]): 0.25 mg/L; MBC (Escherichia coli [39]): > 2 mg/L; MBC (Pseudomonas aeruginosa [40]): 0.25 mg/L; MBC (Pseudomonas aeruginosa [41]): 0.25 mg/L; MBC (Klebsiella pneumoniae [42]): 8 mg/L; MIC (Klebsiella pneumoniae [44]): > 64 mg/L; MIC (Klebsiella pneumoniae [45]): > 64 mg/L; MIC (Klebsiella pneumoniae [46]): 2 mg/L (≈ 3.66 µM)

**Q.** For `C[C@@H](O)[C@H]1C(=O)N2C(C(=O)O)=C(S[C@@H]3CN[C@H](C(=O)N(C)C)C3)[C@H](C)[C@H]12` [MEROPENEM], which MIC (Pseudomonas aeruginosa [43]) is on record?
**A.** 2 mg/L (≈ 5.22 µM)
